Tests used:
Assay in all cases: relative viability (nuclei count vs DMSO), 5 days (fraction); higher = more cells survive
NCI-H2347 = system: NCI-H2347
Method in brief: (§1)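 Relative viability equals treated-well nuclei counts divided by vehicle-well nuclei counts. Counts came from 4× images of lung cancer cell lines grown in 1536-well plates for 5 days after pin-tool dosing on the day after seeding. Dosing used one drug alone or a fixed anchor-drug dose plus five library-drug doses (not always all listed) in √10 steps, and values are medians of duplicate plates.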

HCC-44 = system: HCC-44
Method in brief: as §1

201T = system: 201T
Method in brief: as §1

NCI-H1650 = system: NCI-H1650
Method in brief: as §1

LK-2 = system: LK-2
Method in brief: as §1

NCI-H460 = system: NCI-H460
Method in brief: as §1

NCI-H838 = system: NCI-H838
Method in brief: as §1

LCLC-103H = system: LCLC-103H
Method in brief: as §1

NCI-H650 = system: NCI-H650
Method in brief: as §1

PC-14 = system: PC-14
Method in brief: as §1

SW 1573 = system: SW 1573
Method in brief: as §1

NCI-H1793 = system: NCI-H1793
Method in brief: as §1

H3255 = system: H3255
Method in brief: as §1

NCI-H1944 = system: NCI-H1944
Method in brief: as §1

PC-3 [JPC-3] = system: PC-3 [JPC-3]
Method in brief: as §1

A-427 = system: A-427
Method in brief: as §1

SW 900 = system: SW 900
Method in brief: as §1

LU99A = system: LU99A
Method in brief: as §1

COR-L23 = system: COR-L23
Method in brief: as §1

LCLC-97TM1 = system: LCLC-97TM1
Method in brief: as §1

NCI-H727 = system: NCI-H727
Method in brief: as §1

NCI-H23 = system: NCI-H23
Method in brief: as §1

O=C(O)c1ccc(-c2c[nH]c3ncc(-c4ccccc4)cc23)cc1C1CCCC1 + CC(=O)Nc1cccc(-n2c(=O)n(C3CC3)c(=O)c3c(Nc4ccc(I)cc4F)n(C)c(=O)c(C)c32)c1 [Trametinib] (partner 0.02 µM)
relative viability (NCI-H2347; first compound 0.04 µM): 0.267 | relative viability (NCI-H2347; first compound 0.1265 µM): 0.286 | relative viability (NCI-H2347; first compound 0.4 µM): 0.311 | relative viability (NCI-H2347; first compound 1.265 µM): 0.26 | relative viability (HCC-44; first compound 0.04 µM): 1 | relative viability (HCC-44; first compound 0.1265 µM): 1.02 | relative viability (HCC-44; first compound 0.4 µM): 0.908 | relative viability (HCC-44; first compound 1.265 µM): 1.01 | relative viability (201T; first compound 0.04 µM): 0.703 | relative viability (201T; first compound 0.1265 µM): 0.673 | relative viability (201T; first compound 0.4 µM): 0.741 | relative viability (201T; first compound 1.265 µM): 0.738 | relative viability (NCI-H1650; first compound 0.04 µM): 0.54 | relative viability (NCI-H1650; first compound 0.1265 µM): 0.684 | relative viability (NCI-H1650; first compound 0.4 µM): 0.758 | relative viability (NCI-H1650; first compound 1.265 µM): 0.49 | relative viability (LK-2; first compound 0.04 µM): 0.73 | relative viability (LK-2; first compound 0.1265 µM): 0.816 | relative viability (LK-2; first compound 0.4 µM): 0.599 | relative viability (LK-2; first compound 1.265 µM): 0.781 | relative viability (NCI-H460; first compound 0.04 µM): 0.13 | relative viability (NCI-H460; first compound 0.1265 µM): 0.189 | relative viability (NCI-H460; first compound 0.4 µM): 0.238 | relative viability (NCI-H460; first compound 1.265 µM): 0.23 | relative viability (NCI-H838; first compound 0.04 µM): 0.563 | relative viability (NCI-H838; first compound 0.1265 µM): 0.561 | relative viability (NCI-H838; first compound 0.4 µM): 0.569 | relative viability (NCI-H838; first compound 1.265 µM): 0.472 | relative viability (LCLC-103H; first compound 0.04 µM): 0.65 | relative viability (LCLC-103H; first compound 0.1265 µM): 0.697 | relative viability (LCLC-103H; first compound 0.4 µM): 0.68 | relative viability (LCLC-103H; first compound 1.265 µM): 0.644 | relative viability (NCI-H650; first compound 0.04 µM): 0.935 | relative viability (NCI-H650; first compound 0.1265 µM): 0.943 | relative viability (NCI-H650; first compound 0.4 µM): 0.879 | relative viability (NCI-H650; first compound 1.265 µM): 0.579 | relative viability (PC-14; first compound 0.04 µM): 0.714 | relative viability (PC-14; first compound 0.1265 µM): 0.75 | relative viability (PC-14; first compound 0.4 µM): 0.703 | relative viability (PC-14; first compound 1.265 µM): 0.688 | relative viability (SW 1573; first compound 0.04 µM): 0.476 | relative viability (SW 1573; first compound 0.1265 µM): 0.584 | relative viability (SW 1573; first compound 0.4 µM): 0.439 | relative viability (SW 1573; first compound 1.265 µM): 0.365 | relative viability (NCI-H1793; first compound 0.04 µM): 0.407 | relative viability (NCI-H1793; first compound 0.1265 µM): 0.51 | relative viability (NCI-H1793; first compound 0.4 µM): 0.497 | relative viability (NCI-H1793; first compound 1.265 µM): 0.34 | relative viability (H3255; first compound 0.04 µM): 0.587 | relative viability (H3255; first compound 0.1265 µM): 0.689 | relative viability (H3255; first compound 0.4 µM): 0.584 | relative viability (H3255; first compound 1.265 µM): 0.625 | relative viability (NCI-H1944; first compound 0.04 µM): 0.405 | relative viability (NCI-H1944; first compound 0.1265 µM): 0.437 | relative viability (NCI-H1944; first compound 0.4 µM): 0.487 | relative viability (NCI-H1944; first compound 1.265 µM): 0.37 | relative viability (PC-3 [JPC-3]; first compound 0.04 µM): 0.656 | relative viability (PC-3 [JPC-3]; first compound 0.1265 µM): 0.756 | relative viability (PC-3 [JPC-3]; first compound 0.4 µM): 0.752 | relative viability (PC-3 [JPC-3]; first compound 1.265 µM): 0.647 | relative viability (A-427; first compound 0.04 µM): 0.759 | relative viability (A-427; first compound 0.1265 µM): 0.78 | relative viability (A-427; first compound 0.4 µM): 0.741 | relative viability (A-427; first compound 1.265 µM): 0.584 | relative viability (SW 900; first compound 0.04 µM): 0.757 | relative viability (SW 900; first compound 0.1265 µM): 0.711 | relative viability (SW 900; first compound 0.4 µM): 1.37 | relative viability (SW 900; first compound 1.265 µM): 0.454 | relative viability (LU99A; first compound 0.04 µM): 0.575 | relative viability (LU99A; first compound 0.1265 µM): 0.516 | relative viability (LU99A; first compound 0.4 µM): 0.52 | relative viability (LU99A; first compound 1.265 µM): 0.51 | relative viability (COR-L23; first compound 0.04 µM): 0.584 | relative viability (COR-L23; first compound 0.1265 µM): 0.608 | relative viability (COR-L23; first compound 0.4 µM): 0.627 | relative viability (COR-L23; first compound 1.265 µM): 0.507 | relative viability (LCLC-97TM1; first compound 0.04 µM): 0.202 | relative viability (LCLC-97TM1; first compound 0.1265 µM): 0.204 | relative viability (LCLC-97TM1; first compound 0.4 µM): 0.173 | relative viability (LCLC-97TM1; first compound 1.265 µM): 0.207 | relative viability (NCI-H727; first compound 0.04 µM): 0.428 | relative viability (NCI-H727; first compound 0.1265 µM): 0.428 | relative viability (NCI-H727; first compound 0.4 µM): 0.379 | relative viability (NCI-H727; first compound 1.265 µM): 0.428 | relative viability (NCI-H23; first compound 0.04 µM): 0.375 | relative viability (NCI-H23; first compound 0.1265 µM): 0.397 | relative viability (NCI-H23; first compound 0.4 µM): 0.373 | relative viability (NCI-H23; first compound 1.265 µM): 0.258
